Measurements published in US8900444B2, “Switchable hydrophilicity solvents and methods of use thereof” (Queen's University at Kingston, priority 2009, dated 2014).
Entries after “also recorded” stand apart in the source; their conditions may differ. Where two headings read alike, the source gives them in different places.

Legend:
Format in all cases: physicochemical
[1] = Miscibility of amines with water in the absence of CO2 (Example 5A)
Description: 1 mL of an appropriate amine was combined with 1 mL of H2O in a 4 mL vial, with the 1 and 2 mL volume lines marked. The vial was manually shaken and left to settle at room temperature. After the mixture settled, the number of phases was observed visually. This procedure was performed for all of the screened amines.

[2] = Miscibility of amines with water in the presence of CO2 (Example 5B); conditions: CO2 bubbled through amine/water mixture for at least one hour
Description: All of the amines that formed a biphasic mixture in Example 5A were subjected to the following test. Carbon dioxide was bubbled through the amine/water biphasic mixture, via a syringe needle, for at least one hour. Care was taken to regulate the rate of the CO2 bubbling, so as not to cause evaporation of the amine. The liquid-liquid interface was observed over the course of CO2 bubbling, and a photo was taken after 60 minutes.

[3] = Water miscibility of amidines in neutral form and after CO2; conditions: for miscibility with water, neutral (unprotonated) amidine form: no CO2
Description: This represents relatively hydrophilic character. The amidines A-D are unsatisfactory for use as a switchable hydrophilicity solvent because they are insufficiently hydrophobic in their amidine form. […] Since such amidines are not separable from water after switching from their hydrophilic to hydrophobic forms, they are unsuitable for use in the present invention.
Exposure of a 1:1 by volume mixture of two immiscible liquids, hydrophobic PA and water, to gaseous CO2, at 1 atmosphere, caused a conversion to a hydrophilic liquid comprising an aqueous solution of N,N,N′-tripropylbutyramidinium bicarbonate (PAB) (see FIG. 1 for the chemical scheme in which R^1-4 are propyl). NMR data for the PA/water system is presented in FIGS. 4 and 5 and IR data in FIG. 6. FIGS. 4A and 5A show ^1H and ^13C NMR data for PA. After switching, the detection of the N,N,N′-tripropylbutyramidinium bicarbonate salt was confirmed by ^1H and ^13C NMR as shown in FIGS. 4B and 5B.
Similarly, exposure of a 1:1 by volume mixture of two immiscible liquids, hydrophobic BA and water, to gaseous CO2, at 1 atmosphere, caused a conversion to a hydrophilic liquid comprising an aqueous solution of N,N,N′-tributylpentanamidinium bicarbonate (BAB) (see FIG. 1 for the chemical scheme in which R^1-4 are butyl). NMR data for the […] is presented in FIGS. 7 and 8 and IR data in FIG. 9. […] show ^1H and ^13C NMR data for BA. After switching, the detection of the N,N,N′-tributylpentanamidinium bicarbonate salt was confirmed by ^1H and ^13C NMR as shown in FIGS. 6B and 7B. The hydrophilic aqueous solution of BAB was converted back into hydrophobic BA and water by heating at 80° C.

[4] = Visual and NMR study of amine switchable hydrophilicity solvents (Example 6); conditions: for loss of volume after CO2 bubbling / time of CO2 bubbling to form one homogeneous solution / total volume after CO2 bubbling / number of layers formed without CO2: 1 mL amine + 1 mL D2O; for number of layers formed without CO2: room temperature
Description: The following amines were evaluated in this series of experiments: N-ethylpiperidine, N,N-dimethylcyclohexylamine, and N,N-dimethylhexylamine. The sequence of experiments is described for one amine but was performed for all three. The visual observations are described in Table 3. 1,4-Dioxane was used as an internal standard for NMR spectroscopy.
Amine (1 mL) was combined with D2O (1 mL) in a 10 mL graduated cylinder, which was then capped with a rubber septum. The cylinder was manually shaken and left to settle at room temperature, after which the mixture appeared as two transparent liquid phases. For each amine, this procedure was simultaneously conducted in 3 identical cylinders. From the aqueous (bottom) layer of one of the three cylinders, three 250 μL samples were withdrawn, combined with equal volumes of D2O and dioxane internal standard, and analyzed by ^1H NMR spectroscopy. The spectra were consistent with the amine in the aqueous phase being in its neutral form. The graduated cylinder from which the samples were taken was discarded.
For each of two remaining graduated cylinders, carbon dioxide was bubbled through the amine/water biphasic mixture, via a syringe needle, for at least one hour. Care was taken to regulate the rate of the CO2 bubbling, so as not to cause significant evaporation of the amine. The mixture changed from a biphasic liquid mixture to a single homogeneous liquid phase. From one of the two graduated cylinders, a 300 μL sample of the homogenous liquid phase was withdrawn and mixed with an equal volume of D2O and a known quantity of dioxane internal standard. […] The graduated cylinder from which the sample was taken was discarded.
The remaining graduated cylinder, containing the single-phase amine/water/CO2 mixture prepared above, was heated in an oil bath at 80 deg. C for 1 hour. Phase separation was observed. Three 250 μL samples of the aqueous (bottom) layer were withdrawn, combined with equal volumes of D2O and a known quantity of dioxane internal standard, and analyzed by NMR spectroscopy.

[5] = Converting ammonium bicarbonate salt to amine by bubbling air at room temperature (Example 5D)
Description: A homogeneous aqueous solution of dimethylcyclohexylammonium bicarbonate was prepared by mixing N,N-dimethylcyclohexylamine (1 mL), and H2O (1 mL) and bubbling with CO2 for 90 minutes. The 2.0 mL solution was placed in a 10 mL graduated cylinder with a magnetic stir bar and that was then stoppered with a rubber septum. Air was bubbled through the solution for a total of 28 hours, with constant stirring. […] Total volume loss after 28 hours was 0.1 mL.

[6] = 1 mL amine + 1 mL H2O, room temperature, visual
[7] = 2.0 mL aqueous solution, stirring

| SMILES | miscibility with water under air (absence of CO2) [1, 6] | miscibility with water after CO2 treatment [2] | also measured |
| --- | --- | --- | --- |
| CCCCCCCCN(CCCCCCCC)CCCCCCCC [trioctylamine, reference compound] | biphasic | biphasic |  |
| CCCN(CCC)CCCCN(CCC)CCC [N,N,N′,N′-tetrapropylbutane-1,4-diamine, reference compound] | biphasic | biphasic | miscibility with water after CO2 treatment ([2]; listed as Pr2NCH2CH2CH2CH2NPr2): immiscible |
| CN1CCCCC1 [N-methylpiperidine, reference compound] | single-phase |  |  |
| CCCN=C(CCC)N(CCC)CCC [PA, N,N,N′-tripropylbutyramidine] |  |  | miscibility with water after CO2 trigger (amidinium bicarbonate form) ([3]; CO2 and water): became miscible; miscibility with water, neutral (unprotonated) amidine form [3]: immiscible with water |
| CCCN(CCC)CCC [tripropylamine, reference compound] | biphasic | biphasic |  |
| CCN(C(C)C)C(C)C [N,N-diisopropylethylamine, reference compound] | biphasic | biphasic |  |
| CCCCCCN=C(C)N(C)C [Me2N—C(═N-hexyl)Me, reference compound] |  |  | miscibility with water, neutral (unprotonated) amidine form [3]: water-miscible |
| CCN(C)CC [N,N-diethyl-N-methylamine] | immiscible with water | became water-miscible |  |
| CCN1CCOCC1 [N-ethylmorpholine, reference compound] | single-phase |  |  |
| C1CCC2=NCCCN2CC1 [DBU, 1,8-diazabicyclo-[5.4.0]-undec-7-ene, reference compound] |  |  | miscibility with water, neutral (unprotonated) amidine form [3]: water-miscible |
| CCN(CC)C1CCCCC1 [N,N-diethyl-N-cyclohexylamine] | immiscible with water | became water-miscible |  |
| CCCN(CC)CCCCN(CC)CCC [N,N′-dipropyl-N,N′-diethylbutane-1,4-diamine] | biphasic | single-phase | miscibility with water under air (absence of CO2) ([1]; 1 mL amine + 1 mL H2O, room temperature, visual, listed as EtPrNCH2CH2CH2CH2NEtPr): immiscible; miscibility with water after CO2 treatment ([2]; listed as EtPrNCH2CH2CH2CH2NEtPr): miscible |
| CCCCCCN(C)C [N,N-dimethylhexylamine] | biphasic | single-phase | miscibility with water under air (absence of CO2) ([1]; 1 mL amine + 1 mL H2O, room temperature, visual, listed as dimethylhexylamine): immiscible with water; miscibility with water after CO2 treatment ([2]; listed as dimethylhexylamine): became water-miscible; loss of volume after CO2 bubbling [4]: (loss of 0.1 mL); time of CO2 bubbling to form one homogeneous solution [4]: took 75 min to form one; total volume after CO2 bubbling [4]: total volume is 1.9 mL; number of layers formed without CO2 [4]: formed 2 clear,; time of heating to separate into 2 layers ([4]; oil bath 80 deg. C): after 30 min solution has; volume of bottom (aqueous) layer after heating ([4]; oil bath 80 deg. C): 1 mL; volume of top layer after heating ([4]; oil bath 80 deg. C): 0.9 mL |
| CCCCN1CCCC1 [N-butylpyrrolidine] | immiscible with water; also recorded: biphasic | became water-miscible; also recorded: single-phase |  |
| CN(C)c1ccccc1 [N,N-dimethylaniline, reference compound] | biphasic | biphasic |  |
| CCCCCCCCCCCCN(C)C [N,N-dimethyldodecylamine, reference compound] | biphasic | biphasic |  |
| CN(C)C1CCCCC1.O=C(O)O [dimethylcyclohexylammonium bicarbonate] |  |  | total volume loss after 28 hours of air bubbling [5]: 0.1 mL; volume of bottom layer after 28 hours of air bubbling [5]: 1.6 mL; volume of top layer after 28 hours of air bubbling [5]: 0.3 mL; observation after 8 hours of air bubbling [5, 7]: no observed phase separation or volume loss; observation after 28 hours of air bubbling [5, 7]: a two-phase liquid mixture was observed |
| CN(C)Cc1cc(CN(C)C)cc(CN(C)C)c1 [1,1′,1″-(benzene-1,3,5-triyl)tris(N,N-dimethylmethanamine)] | biphasic | single-phase |  |
| CN(C)CCCCN(C)C [Me2NCH2CH2CH2CH2NMe2, reference compound] | miscible |  |  |
| CN(C)CCN(C)C [N,N,N′,N′,-tetramethylethylenediamine, reference compound] |  |  | miscibility with water under air (absence of CO2) [1]: single-phase |
| CCCCN(C)C [N,N-dimethylbutylamine] | biphasic | single-phase |  |
| CCN1CCCCC1 [N-ethylpiperidine] | immiscible with water; also recorded: biphasic | became water-miscible; also recorded: single-phase | loss of volume after CO2 bubbling [4]: (loss of 0.1 mL); time of CO2 bubbling to form one homogeneous solution [4]: took 60 min to form one; total volume after CO2 bubbling [4]: total volume is 1.9 mL; number of layers formed without CO2 [4]: formed 2 layers;; amine remaining in the aqueous phase after heating ([4]; 80 deg. C, 1 hour, NMR spectroscopy, dioxane internal standard): showed that approximately 49%; time of heating to separate into 2 layers ([4]; oil bath 80 deg. C): after 30 min, separated into 2; volume of top layer after heating ([4]; oil bath 80 deg. C): 0.7 mL. NMR spectroscopy |
| CN(C)CC1CC(CN(C)C)CC(CN(C)C)C1 (centres unmarked) [1,1′,1″-(cyclohexane-1,3,5-triyl)tris(N,N-dimethylmethanamine] | biphasic | single-phase |  |
